Experiments:
[1] = tested on: lipid peroxide radical production; experiment: Lipid peroxide radical production inhibition test; type: cell-based, Staphylococcus aureus 3A; details: for Growth of bacteria: 37° C., 30 minutes
[2] = target: T1, α-glucosidase from rat small intestine mucous membrane (Rattus norvegicus, UniProt P23739); experiment: α-Glucosidase inhibition test (crude enzyme from rat small intestine); type: biochemical; details: for relative activity: substrate Sucrose, control without DGE = 100%
T1 construct: relative activity; other: substrate Sucrose, DGE 0.2 mM; control without DGE = 100%; relative activity; other: substrate Sucrose, DGE 0.5 mM; other: substrate Sucrose, DGE 1.0 mM; other: substrate Sucrose, DGE 2.0 mM; other: for sucrose, Dixon
Description: (2) A crude enzyme preparation of α-glucosidase from rat small intestine mucous membrane [prepared according to the method as described in Arne Dahlqvist, Anal. Biochem., 7:18-25 (1964)] was used to measure the activity of inhibiting α-glucosidase of DGE as follows.
For the enzymatic reaction, 80 μl of a solution of sucrose, maltose, treharose or soluble starch as a substrate in 10 mM phosphate buffer (pH 7.0) buffer at a final concentration of 100 mM (0.5% for soluble starch) was added to 10 μl of a test sample solution appropriately diluted with the same buffer. 10 μl of the crude enzyme solution prepared from rat small intestine was added thereto. The mixture was reacted at 37° C. for 20 minutes.
The enzymatic reaction was assessed by adding 3 ml of a reagent for glucose measurement (Wako Pure Chemical Industries) to the reaction mixture, reacting at 37° C. for 5 minutes and then measuring the absorbance at 505 nm as the glucose content in the mixture.
The inhibitory activity of DGE on the digestion of each substrate by α-glycosidase was measured using DGE at four different concentrations according to the above-mentioned method. The activity of inhibiting α-glycosidase was expressed as a relative activity (%) defining the activity of the control without DGE as 100%.

T1 sequence (P23739 whole entry): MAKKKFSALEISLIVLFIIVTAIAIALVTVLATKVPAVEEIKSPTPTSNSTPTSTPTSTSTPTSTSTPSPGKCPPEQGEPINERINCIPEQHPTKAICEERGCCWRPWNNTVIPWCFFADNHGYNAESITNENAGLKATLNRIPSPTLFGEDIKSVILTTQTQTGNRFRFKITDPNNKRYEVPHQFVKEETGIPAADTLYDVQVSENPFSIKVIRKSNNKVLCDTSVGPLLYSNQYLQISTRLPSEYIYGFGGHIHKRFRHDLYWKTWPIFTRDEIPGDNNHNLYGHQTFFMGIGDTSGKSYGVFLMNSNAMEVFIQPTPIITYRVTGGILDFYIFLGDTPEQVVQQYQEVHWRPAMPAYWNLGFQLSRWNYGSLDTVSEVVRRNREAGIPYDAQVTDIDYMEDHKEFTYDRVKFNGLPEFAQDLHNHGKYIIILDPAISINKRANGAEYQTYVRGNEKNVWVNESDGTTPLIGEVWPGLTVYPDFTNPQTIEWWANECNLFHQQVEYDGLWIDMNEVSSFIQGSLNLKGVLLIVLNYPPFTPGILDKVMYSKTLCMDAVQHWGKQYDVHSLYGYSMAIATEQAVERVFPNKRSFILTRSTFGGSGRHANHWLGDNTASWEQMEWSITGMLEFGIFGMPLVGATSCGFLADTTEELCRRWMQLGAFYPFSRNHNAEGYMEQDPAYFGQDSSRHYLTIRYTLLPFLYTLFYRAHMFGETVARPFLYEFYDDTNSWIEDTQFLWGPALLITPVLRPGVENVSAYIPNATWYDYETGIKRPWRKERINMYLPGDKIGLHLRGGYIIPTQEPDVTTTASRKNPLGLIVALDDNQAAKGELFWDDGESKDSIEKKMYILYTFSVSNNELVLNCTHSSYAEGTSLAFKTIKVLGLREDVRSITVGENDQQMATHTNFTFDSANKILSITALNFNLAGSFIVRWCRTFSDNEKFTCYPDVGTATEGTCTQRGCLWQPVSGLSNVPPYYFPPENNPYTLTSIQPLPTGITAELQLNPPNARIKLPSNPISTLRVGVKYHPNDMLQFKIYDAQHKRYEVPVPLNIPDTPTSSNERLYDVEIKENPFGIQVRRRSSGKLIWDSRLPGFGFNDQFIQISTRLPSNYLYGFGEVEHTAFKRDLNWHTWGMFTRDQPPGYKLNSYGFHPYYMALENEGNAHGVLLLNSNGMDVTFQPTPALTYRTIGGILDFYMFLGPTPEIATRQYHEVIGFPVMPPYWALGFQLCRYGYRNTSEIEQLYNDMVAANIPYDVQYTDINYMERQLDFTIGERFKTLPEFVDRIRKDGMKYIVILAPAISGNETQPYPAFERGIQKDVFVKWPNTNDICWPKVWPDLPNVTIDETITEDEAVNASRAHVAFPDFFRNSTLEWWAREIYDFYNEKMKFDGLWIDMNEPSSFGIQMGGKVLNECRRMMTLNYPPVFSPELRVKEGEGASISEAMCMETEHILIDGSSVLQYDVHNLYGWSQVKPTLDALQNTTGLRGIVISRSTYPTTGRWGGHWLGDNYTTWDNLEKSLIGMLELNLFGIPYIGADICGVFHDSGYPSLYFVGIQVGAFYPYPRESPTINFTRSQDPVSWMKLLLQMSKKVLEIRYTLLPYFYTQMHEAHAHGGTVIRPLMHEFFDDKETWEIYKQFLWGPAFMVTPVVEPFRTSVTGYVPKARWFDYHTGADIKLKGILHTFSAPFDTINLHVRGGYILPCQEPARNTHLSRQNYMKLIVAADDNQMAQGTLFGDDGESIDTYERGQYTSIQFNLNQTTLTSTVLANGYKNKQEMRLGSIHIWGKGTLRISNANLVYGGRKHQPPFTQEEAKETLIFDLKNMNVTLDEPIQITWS

O=C1C=CC(CO)OC1O [DGE, L-glycero-1,5-epoxy-1αβ,6-dihydroxy-cis-hex-3-en-2-one]
activity of inhibiting lipid peroxide radical production [1]: exhibited an activity of inhibiting lipid peroxide radical production
Growth of bacteria ([1]; DGE 1 mM in the reaction mixture with tert-butyl hydroperoxide): −
Growth of bacteria ([1]; DGE 10 mN in the reaction mixture with tert-butyl hydroperoxide): +
activity of inhibiting α-glycosidase with sucrose as a substrate compared with maltose or the like [2]: exhibited a higher activity of inhibiting α-glycosidase
Ki ([2]; for sucrose, Dixon plot, read-out: inhibition constant (Ki)): 6 mM
relative activity ([2]; DGE 0.2 mM): 91%
relative activity ([2]; DGE 0.5 mM): 92%
relative activity ([2]; DGE 1.0 mM): 83%
relative activity ([2]; DGE 2.0 mM): 71%
